The test system of one series is VCAM-1. Nature of the series: In Vitro VCAM-1 Assay (ELISA of TNF-α-stimulated endothelial cells). The format is cell-based, human. The conditions noted are these: HAEC or HPAEC cells stimulated with TNF-α (1 ng/ml), approx. 16 h, n = 3. The method, then:
Cell Culture and compound dosing: Cultured primary human aortic (HAEC) or pulmonary (HPAEC) endothelial cells were obtained from Clonetics, Inc., and were used below passage 9. Cells were seeded in 96 well plates such that they would reach 90-95% confluency by the following day. On the following day the cells were stimulated with TNF-α (1 ng/ml) in the presence or absence of compounds dissolved in DMSO such that the final concentration of DMSO is 0.25% or less. To establish a dose curve for each compound, four concentrations in 2- to 5-fold increments were used. Cells were exposed to TNF-α and compounds for approximately 16 hours. The next day the cells were examined under microscope to score for visual signs of toxicity or cell stress.
Following 16 hr exposure to TNF-α and compound the media was discarded and the cells were washed once with Hanks Balanced Salt Solution (HBSS)/Phosphate buffered saline (PBS) (1:1). Primary antibodies against VCAM-1 (0.25 μg/ml in HBSS/PBS+5% FBS) were added and incubated for 30-60 minutes at 37° C. Cells were washed with HBSS/PBS three times, and secondary antibody Horse Radish Peroxidase (HRP)-conjugated goat anti-mouse IgG (1:500 in HBSS/PBS+5% FBS) were added and incubated for 30 minutes at 37° C. Cells were washed with HBSS/PBS four times and TMB substrate were added and incubated at room temperature in the dark until there was adequate development of blue color. The length of time of incubation was typically 5-15 minutes. 2N sulfuric acid was added to stop the color development and the data was collected by reading the absorbance on a BioRad ELISA plate reader at OD 450 nm. The results are expressed as IC50 values (the concentration (micromolar) of compound required to inhibit 50% of the maximal response of the control sample stimulated by TNF-α only). IC50's of the Examples and the free acid of the Examples are tabulated in VCAM-1 Table 1a.

A further series is described as follows: Solubility in water. Format: physicochemical. The following applies: for solubility: water, 25 °C.
Where [1] appears, read: Homo sapiens, Endothelial cell, meglumine salt of the Example, read-out: IC50 (μM) (n = 3).
Where [2] appears, read: meglumine salt of the Example, ˜25° C., read-out: Solubility (μg/ml) @ ˜25° C.
The mark [3] stands for this setting: meglumine salt, value given in the synthesis example, read-out: Solubility in water.
[4] abbreviates: Homo sapiens, Endothelial cell, free acid of the Example, read-out: IC50 (μM) of the free acid (n = 3).
Setting [5] is: free acid of the Example, ˜25° C., read-out: Solubility, Free acid (μg/ml) @ ˜25° C.

The values below come from patent US6960683B2, “Salt forms of poorly soluble probucol esters and ethers” (Atherogenics, Inc., priority 2002, dated 2005).

Counter-ions that a name gives are not always drawn. Like-named read-outs stand apart in the source and are kept apart here.

What is called IC50 is the midpoint of a concentration-inhibition curve. Take `CC(C)(Sc1cc(C(C)(C)C)c(O)c(C(C)(C)C)c1)Sc1cc(C(C)(C)C)c(OC(=O)CCC(=O)O)c(C(C)(C)C)c1` [Example 1 free acid, Butanedioic acid, mono [4-[[1-[[3,5-bis(1,1-dimethylethyl)-4-hydroxyphenyl]thio]-1-methylethyl]thio]-2,6-bis(1,1-dimethylethyl)phenyl]ester, reference compound]: the IC50 in the series with VCAM-1 (free acid of the Example, read-out: IC50 (μM) of the free acid (n = 3)) was 7.7 µM. In the series “Solubility in water” (free acid of the Example, ˜25° C.), the “Solubility, Free acid (μg/ml) @ ˜25° C.” value is under 5 µg/mL.
Regarding `CC(C)(Sc1cc(C(C)(C)C)c(O)c(C(C)(C)C)c1)Sc1cc(C(C)(C)C)c(OC(=O)CCC(=O)O)c(C(C)(C)C)c1` [Example 1, Butanedioic Acid, Mono [4-[[1-[[3,5-bis(1,1-dimethylethyl)-4-hydroxyphenyl]thio]-1-methylethyl]thio]-2,6-bis(1,1-dimethylethyl)phenyl]Ester Meglumine Salt], the half-maximal inhibitory concentration (IC50) with VCAM-1 (setting [1]) was determined as 13 µM. Also, the solubility in the series “Solubility in water” (setting [2]) and in the series “Solubility in water” (setting [3]) was 390 µg/mL throughout.
Take `CC(C)(Sc1cc(C(C)(C)C)c(O)c(C(C)(C)C)c1)Sc1cc(C(C)(C)C)c(OCC(=O)O)c(C(C)(C)C)c1` [Example 2 free acid, Acetic acid, [4-[[1-[[3,5-bis(1,1-dimethylethyl)-4-hydroxyphenyl]thio]-1-methyl-ethyl]thio]-2,6-bis(1,1-dimethylethyl)phenoxy]-, reference compound]: the IC50 with VCAM-1 (setting [4]) amounted to 10 µM. Further, the solubility in the series “Solubility in water” (setting [5]) is under 5 µg/mL.
As for `CC(C)(Sc1cc(C(C)(C)C)c(O)c(C(C)(C)C)c1)Sc1cc(C(C)(C)C)c(OCC(=O)O)c(C(C)(C)C)c1` [Example 2, Acetic Acid, [4-[[1-[[3,5-bis(1,1-dimethylethyl)-4-hydroxyphenyl]thio]-1-methylethyl]thio]-2,6-bis(1,1-dimethylethyl)phenoxy]-, Meglumine Salt], the IC50 in the series with VCAM-1 (setting [1]) amounted to 6.5 µM. Further, the solubility in the series “Solubility in water” (setting [2]) and in the series “Solubility in water” (setting [3]) was 1010 µg/mL throughout.
As for `CC(C)(Sc1cc(C(C)(C)C)c(O)c(C(C)(C)C)c1)Sc1cc(C(C)(C)C)c(OCCCC(=O)O)c(C(C)(C)C)c1` [Example 3 free acid, Butanoic acid, 4-[4-[[1-[[3,5-bis(1,1-dimethylethyl)4-hydroxyphenyl]thio]-1-methyl-ethyl]thio]-2,6-bis(1,1-dimethylethyl)phenoxy]-, reference compound], the half-maximal inhibitory concentration (IC50) with VCAM-1 (setting [4]) turned out to be 11 µM. In the series “Solubility in water” (setting [5]), the solubility was under 5 µg/mL.
For `CC(C)(Sc1cc(C(C)(C)C)c(O)c(C(C)(C)C)c1)Sc1cc(C(C)(C)C)c(OCCCC(=O)O)c(C(C)(C)C)c1` [Example 3, Butanoic Acid, 4-[4-[[1-[[3,5-bis(1,1-dimethylethyl)4-hydroxyphenyl]thio]-1-methylethyl]-thio]-2,6-bis(1,1-dimethylethyl)phenoxy]-, Meglumine Salt], the IC50 in the series with VCAM-1 (setting [1]) is 12 µM. In addition, the solubility in “Solubility in water” (setting [2]) and in “Solubility in water” (setting [3]) was 1910 µg/mL each time.
